In PubChem BioAssay (NCI):
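Five compound concentrations were applied to cells in 96-well plates for 48 hours; endpoints were derived by simple linear interpolation of the resulting dose-response curve. Abbreviation: GI50, concentration required for 50% inhibition of growth. TGI: total growth inhibition.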

What was measured:
Assay in all cases: NCI-60 cell line screen, 48 h
[1] = test system: UACC-62 melanoma
[2] = test system: U251 CNS
[3] = test system: A498 renal
[4] = test system: SF-295 CNS
[5] = test system: SF-539 CNS
[6] = test system: HOP-92 NSCLC
[7] = test system: RPMI-8226 leukemia
[8] = test system: DU-145 prostate
[9] = test system: SN12C renal
[10] = test system: RXF 393 renal
[11] = test system: CAKI-1 renal
[12] = test system: NCI/ADR-RES ovarian
[13] = test system: KM12 colon
[14] = test system: MOLT-4 leukemia
[15] = test system: K-562 leukemia
[16] = test system: SK-OV-3 ovarian
[17] = test system: SW-620 colon
[18] = test system: MDA-MB-435
[19] = test system: OVCAR-3 ovarian
[20] = test system: SK-MEL-28 melanoma
[21] = test system: UO-31 renal
[22] = test system: NCI-H522 lung
[23] = test system: HT29 colon
[24] = test system: SK-MEL-5 melanoma
[25] = test system: EKVX NSCLC
[26] = test system: TK-10 renal
[27] = test system: COLO 205 colon
[28] = test system: PC-3 prostate

Fc1ccc2c(c1)C1=C(CCC2)C(c2ccc(Cl)cc2)NC(=S)N1 (stereo not given)
TGI [1]: > 100 µM
GI50 [2]: 54.7 µM
TGI [2]: > 100 µM
GI50 [3]: 43.6 µM
TGI [3]: > 100 µM
GI50 [4]: 47 µM
TGI [4]: > 100 µM
GI50 [5]: 37.6 µM
TGI [5]: > 100 µM
GI50 [6]: 16.7 µM
TGI [6]: 73.9 µM
GI50 [7]: 13.1 µM
TGI [7]: 53.8 µM
GI50 [8]: 49.1 µM
TGI [8]: > 100 µM
GI50 [9]: 60.8 µM
TGI [9]: 89.2 µM
GI50 [10]: 81.4 µM
TGI [10]: > 100 µM
GI50 [11]: 51.7 µM
TGI [11]: > 100 µM
GI50 [12]: 61.6 µM
TGI [12]: > 100 µM
GI50 [13]: 32.3 µM
TGI [13]: > 100 µM
GI50 [14]: 24.5 µM
TGI [14]: > 100 µM
GI50 [15]: 32.4 µM
TGI [15]: > 100 µM
GI50 [16]: > 100 µM
TGI [16]: > 100 µM
GI50 [17]: 39.1 µM
TGI [17]: > 100 µM
GI50 [18]: 40.9 µM
TGI [18]: > 100 µM
GI50 [19]: 27.8 µM
TGI [19]: > 100 µM
GI50 [20]: 78 µM
TGI [20]: > 100 µM
GI50 [21]: 16.9 µM
TGI [21]: > 100 µM
GI50 [22]: 13.1 µM
TGI [22]: 94 µM
GI50 [23]: 49.9 µM
TGI [23]: > 100 µM
GI50 [24]: 28.4 µM
TGI [24]: > 100 µM
GI50 [25]: 32.8 µM
TGI [25]: > 100 µM
GI50 [26]: 12.6 µM
TGI [26]: 80.3 µM
GI50 [27]: 62.1 µM
TGI [27]: > 100 µM
GI50 [28]: 17.6 µM
TGI [28]: > 100 µM
